# Experimental data: patent US7879835B2 (Korea Research Institute of Chemical Technology, priority 2004, dated 2011)
# Key:
# [1] = system: osteoclast (TRAP-positive multinuclear cell) formation; experiment: Inhibitory effect on osteoclast formation (TRAP staining); type: cell-based, mice; conditions: 8 days culture with M-CSF and RANKL, compared to control
# Experimental: The inhibitory activities of the alpha-arylmethoxyacrylate derivatives prepared in the above Examples on the proliferation of osteoclasts were examined as follows.
# First, a bone marrow sample containing osteoclast pregenitor cells was isolated as follows. After sacrificing 7 to 9 week-old female mice by cervical dislocation, femur and tibia were excised aseptically while removing soft tissues attached thereto, After cutting both ends of the long bones, 1 ml of an enzyme solution containing 0.1% collagenase (Gibco), 0.05% trypsin and 0.5 mM EDTA (Gibco) was injected into the bone marrow cavity at one end using a syringe with a 26-gauge needle, and the bone marrow was then collected. After stirring the recovered bone marrow for 30 min, the precipitated bone marrow cells were collected, and cultured in α-minimum essential medium (α-MEM) supplemented with 10% FBS for 24 hrs. Then, non-adherent cells, which are osteoclast pregenitors, were aliquoted onto a culture plate at a density of 2×10^5 cells per well, and cultured for 8 days in α-MEM supplemented with 20 ng/ml of macrophage-colony stimulating factor (M-CSF, Peprotech, USA), 30 ng/ml RANKL (Peprotech, USA), and 0.3, 1.0 or 3 μM of the compounds of the Examples. Control cells were cultured at the same condition except not adding the compounds of the Examples.
# After cell culture for 8 days, the adherent cells were washed with PBS and fixed with citrate-acetate-formaldehyde for 5 min. The fixed cells were incubated at 37° C. for 1 hr in acetate buffer (pH 5.0) containing naphthol AS-BI phosphate, fast Garnet GBC solution and 7 mM tartrate buffer (pH 5.0) to conduct TRAP (tartrate-resistant acid phosphatase) staining.
# osteoclasts = experiment: Inhibitory effect on resorption activity of osteoclast (resorption pit area on calcium phosphate-coated plate); type: cell-based, mice; conditions: compared to control
# Experimental: After finishing culture, the plate was washed with distilled water, and 50 μl/well of 5% sodium hypochlorite was added to the plate. The plate was let alone for 5 min, washed again with distilled water to remove the adherent cells, and dried at room temperature. Then, the area of formed resorption pits was calculated by means of Image Pro Plus software (Media Cybernetics Ver. 3.0).
# MG-63 cells = experiment: Cytotoxicity test against osteoblast (MTT); type: cell-based, human
# Experimental: (§1) In order examine the toxicities of the compounds of the Examples against osteoclast pregenitors, pregenitor cells were aliquotted onto a 96-well microplate at a density of 2×10^5 cells per well, treated with 2, 4 and 8 μM of the test compounds, respectively, and cultured for 48 hrs in α-MEM supplemented with 20 ng/ml of M-CSF (Peprotech, USA) using 37° C. incubator (5% CO2). At 3 hrs before the culture was finished, 50 μl of MTT (3-(4,5-dimethylthiazol-2-yl)-2,5-diphenyltetrazolium bromide) solution (50 μg/ml) was added to each well. Upon completion of the cell culture, the supernatant was removed, and the precipitated dye was reacted with 100 μl of isopropanol/0.04 N HCl at room temperature for 30 min to dissolve it. The absorbances of the wells were measured at 550 nm, and the relative absorbance of each well relative to that of the control (set as 100) is shown in Table 6.
# In order to examine the toxicity of the compounds of the Examples against osteoblasts, human osteosarcoma-derived cell line, MG-63 (ATCC No. CRL-1427) cells were treated with 0.1, 0.3, 1.0 and 3.0 μM of the compounds of the Examples, and cultured in DMEM supplemented with 10% FBS (fetal bovine serum).
# [2] = system: osteoclast pregenitor cells; experiment: Cytotoxicity against osteoclast pregenitor (MTT); type: cell-based, mice; conditions: 48 hrs, absorbance at 550 nm
# Experimental: as §1
SMILES,Osteoclast formation inhibitory effects (%) ([1]; 0.3 μM),Osteoclast formation inhibitory effects (%) ([1]; 1.0 μM),Osteoclast formation inhibitory effects (%) ([1]; 3.0 μM),Reduction (%) of the resorption pit area of osteoclasts (osteoclasts; 1 uM),Reduction (%) of the resorption pit area of osteoclasts (osteoclasts; 3 uM),"relative absorbance relative to that of the control (set as 100), MTT (MG-63 cells; 0.33 uM)","relative absorbance relative to that of the control (set as 100), MTT (MG-63 cells; 1 uM)","relative absorbance relative to that of the control (set as 100), MTT (MG-63 cells; 3 uM)",Reduction (%) of the resorption pit area of osteoclasts (osteoclasts; 0.3 uM),"relative absorbance relative to that of the control (set as 100), MTT ([2]; 2 uM)","relative absorbance relative to that of the control (set as 100), MTT ([2]; 4 uM)","relative absorbance relative to that of the control (set as 100), MTT ([2]; 8 uM)","relative absorbance relative to that of the control (set as 100), MTT (MG-63 cells; 0.11 uM)"
CO/C=C(/C(=O)OC)c1ccccc1CON=C(C)c1cccc(OCCN2CCOCC2)c1 [compound 20],12%,34%,100%,26%,47%,106,106,105,–,–,–,–,–
CO/C=C(/C(=O)OC)c1ccccc1COc1cccc(C(OC)OC)c1 [compound 133],16%,95%,100%,99%,100%,108,107,103,75%,93,104,102,103
C=CCCCCCCOc1cccc(OCc2ccccc2/C(=C\OC)C(=O)OC)c1 [compound 197],100%,100%,100%,100%,100%,101,111,103,100%,–,–,–,112
CO/C=C(/C(=O)OC)c1ccccc1COc1cccc(C(F)CC(C)(F)F)c1 (stereo not shown) [compound 205],90%,100%,100%,100%,100%,–,–,–,–,101,109,104,–
CO/C=C(/C(=O)OC)c1ccccc1COc1cccc(C(F)CC(C)=O)c1 (stereo not shown) [compound 206],35%,100%,100%,100%,100%,–,–,–,97%,102,102,108,–
CO/C=C(/C(=O)OC)c1ccccc1COc1cccc(OCC2CC2)c1 [compound 215],51%,100%,100%,100%,100%,–,–,–,97%,96,102,107,–
CO/C=C(/C(=O)OC)c1ccccc1COc1cccc(OCC=C(C)C)c1 [compound 217],94%,100%,100%,100%,100%,–,–,–,–,90,96,107,–
CO/C=C(/C(=O)OC)c1ccccc1COc1cccc(OCC(C)C)c1 [compound 219],99%,100%,100%,88%,100%,–,–,–,–,90,100,99,–
CCCCCCOc1cccc(OCc2ccccc2/C(=C\OC)C(=O)OC)c1 [compound 220],100%,100%,100%,70%,73%,–,–,–,42%,89,98,96,–
CCC(C)Oc1cccc(OCc2ccccc2/C(=C\OC)C(=O)OC)c1 (stereo not shown) [compound 221],39%,100%,100%,100%,100%,–,–,–,94%,96,96,99,–
CO/C=C(/C(=O)OC)c1ccccc1COc1cccc(OC2CCCC2)c1 [compound 222],69%,100%,100%,100%,100%,–,–,–,100.0%,97,108,101,–
CO/C=C(/C(=O)OC)c1ccc(Cl)cc1COc1ccc(OCC=C(C)C)cc1 [compound 269],97%,100%,100%,100%,100%,81,94,88,100%,–,–,–,–
CCCCCCOc1ccc(OCc2cc(Cl)ccc2/C(=C\OC)C(=O)OC)cc1 [compound 271],94%,100%,100%,94%,42%,114,79,64,30%,–,–,–,–
CCC(C)Oc1ccc(OCc2cc(F)ccc2/C(=C\OC)C(=O)OC)cc1 (stereo not shown) [compound 319],82%,100%,100%,100%,100%,–,–,–,0%,–,–,–,–
